Here are results for six molecules from PubChem BioAssay (NCI).

Some test systems named below: MDA-MB-231 breast; IGROV1 ovarian; MDA-MB-435; SNB-19 CNS; SF-539 CNS; NCI-H23 lung; HT29 colon; CAKI-1 renal; OVCAR-8 ovarian; MCF7 breast.
Common to all, as to experiment: NCI anticancer screen, dose series, 48 h

“And” between values parts separate entries of the source, which are not always exact repeats. Equal values may be shown once.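 Grown in 96-well plates, cells were treated for 48 hours with each compound at five concentrations. Insufficient inhibition: endpoint recorded as highest concentration tested. GI50 is the concentration that inhibits growth by half. TGI marks complete inhibition of growth.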

Regarding `CCNc1nc(O)c(/C=C2\C=Nc3ncccc32)s1`, the GI50 with MDA-MB-231 breast was 4.17 µM; in the experiment on IGROV1 ovarian it was 4.66 µM; with MDA-MB-435, 3.49 µM; with SNB-19 CNS it was 3.6 µM; in the experiment with SF-539 CNS, 1.51 µM; with NCI-H23 lung it was 2.57 µM. The GI50 with HT29 colon was 4.44 µM; in the experiment on CAKI-1 renal, 3.66 µM; with OVCAR-8 ovarian, 3.27 µM; in the experiment on MCF7 breast it was 2.55 µM. The TGI in the experiment with MDA-MB-231 breast is above 100 µM; in the experiment on IGROV1 ovarian, above 100 µM; in the experiment with MDA-MB-435, 14.9 µM; in the experiment on SNB-19 CNS it was above 100 µM; in the experiment on SF-539 CNS, 3.7 µM; with NCI-H23 lung it was 11.5 µM. Moreover, the TGI in the experiment on HT29 colon, in the experiment with CAKI-1 renal, with OVCAR-8 ovarian and with MCF7 breast was above 100 µM each time.

Consider `CCN1C(=S)N(CC)C2C1NC(=S)N2/N=C/C=C/c1ccccc1OC` (stereo not given), for which the GI50 with MDA-MB-231 breast is 0.521 µM; with IGROV1 ovarian, 0.506 µM; in the experiment on MDA-MB-435, 0.0368 µM; in the experiment with SNB-19 CNS it was 0.48 µM; with SF-539 CNS, 0.194 µM; in the experiment on NCI-H23 lung, 0.466 µM. Also, the GI50 with HT29 colon is 0.33 µM; in the experiment on CAKI-1 renal, 0.101 µM; in the experiment with OVCAR-8 ovarian, 0.538 µM; in the experiment on MCF7 breast it was 0.171 µM. The TGI was 10.3 µM in the experiment with MDA-MB-231 breast; above 100 µM with IGROV1 ovarian; 0.177 µM with MDA-MB-435; above 100 µM with SNB-19 CNS; 0.541 µM with SF-539 CNS; above 100 µM in the experiment with NCI-H23 lung. Also, the TGI in the experiment on HT29 colon was 14.4 µM; with CAKI-1 renal, 45.9 µM; in the experiment with OVCAR-8 ovarian it was above 41.2 µM; in the experiment with MCF7 breast it was above 100 µM.

Turning to `CN(C)CCCC1(c2ccc(F)cc2)OCc2cc(-c3cccc4[nH]ccc34)ccc21` (stereo not given), the GI50 with MDA-MB-231 breast was 1.49 µM; in the experiment on IGROV1 ovarian it was 1.33 µM; in the experiment on MDA-MB-435, 1.76 µM; in the experiment on SNB-19 CNS, 1.74 µM; in the experiment on SF-539 CNS it was 1.67 µM; in the experiment with NCI-H23 lung, 1.83 µM. Also, the GI50 is 1.6 µM in the experiment with HT29 colon, 1.41 µM with CAKI-1 renal, 1.86 µM in the experiment on OVCAR-8 ovarian and 1.55 µM in the experiment on MCF7 breast. Also, the TGI was found to be 2.9 µM in the experiment with MDA-MB-231 breast; 2.73 µM in the experiment on IGROV1 ovarian; 3.31 µM in the experiment on MDA-MB-435; 3.26 µM in the experiment on SNB-19 CNS; 3.12 µM with SF-539 CNS; 3.62 µM in the experiment on NCI-H23 lung. In addition, the TGI was found to be 3.39 µM with HT29 colon, 2.77 µM with CAKI-1 renal, 3.7 µM with OVCAR-8 ovarian and 3.25 µM with MCF7 breast.

As for `CNC(=O)c1ncccc1Nc1nc(Nc2cc3c(cc2OC)CCCN3C(=O)CN(C)C)nc2[nH]ccc12`, the GI50 with MDA-MB-231 breast was 1.58 µM; with IGROV1 ovarian it was 3.52 µM; in the experiment with MDA-MB-435 it was 0.244 µM; in the experiment with SNB-19 CNS, 3.49 µM; with SF-539 CNS it was 1.57 µM; in the experiment with NCI-H23 lung it was 0.476 µM. The GI50 in the experiment on HT29 colon is 0.0491 µM; with CAKI-1 renal, 2.74 µM; in the experiment on OVCAR-8 ovarian, 1.25 µM; in the experiment on MCF7 breast it was 0.073 µM. The TGI in the experiment with MDA-MB-231 breast turned out to be 5.3 µM; in the experiment with IGROV1 ovarian it was 8.66 µM; with MDA-MB-435, 1.78 µM; with SNB-19 CNS, 11.2 µM; in the experiment with SF-539 CNS it was 5.13 µM; with NCI-H23 lung it was 3.07 µM. The TGI with HT29 colon came to 1.25 µM; in the experiment with CAKI-1 renal it was 7.22 µM; in the experiment on OVCAR-8 ovarian it was 5.1 µM; in the experiment with MCF7 breast, 2.73 µM.

As for `N#CC1(c2ccc(NC(=O)c3cccnc3NCc3ccncc3)cc2)CCCC1`, the GI50 with MDA-MB-231 breast was 11.3 µM; with IGROV1 ovarian it was 20.5 µM; with MDA-MB-435, 13.4 µM; with SNB-19 CNS it was 27.7 µM; with SF-539 CNS, 3.37 µM; in the experiment on NCI-H23 lung, 12.8 µM. Besides, the GI50 is 9.96 µM in the experiment with HT29 colon, 16.8 µM in the experiment with CAKI-1 renal, 21.1 µM in the experiment with OVCAR-8 ovarian and 10.6 µM in the experiment on MCF7 breast. In addition, the TGI in the experiment on MDA-MB-231 breast was 52.8 µM; in the experiment on IGROV1 ovarian, above 89.8 µM; with MDA-MB-435, 37.4 µM; with SNB-19 CNS, above 100 µM; in the experiment on SF-539 CNS, 29.9 µM; with NCI-H23 lung it was 41.8 µM. Also, the TGI was above 56.2 µM in the experiment with HT29 colon, above 85.9 µM in the experiment with CAKI-1 renal, above 83.3 µM in the experiment with OVCAR-8 ovarian and 49.5 µM in the experiment on MCF7 breast.

Turning to `Cc1nn(-c2ccc(Cl)cc2)c2ncnc(N/N=C/c3ccccc3O)c12`, the GI50 is 0.694 µM and 0.375 µM in the experiment with MDA-MB-231 breast; 0.534 µM and 0.485 µM with IGROV1 ovarian; 1.1 µM and 0.571 µM in the experiment with MDA-MB-435; 1.08 µM and 0.604 µM in the experiment on SNB-19 CNS; 0.484 µM and 0.455 µM in the experiment with SF-539 CNS; 2.05 µM and 0.721 µM in the experiment on NCI-H23 lung. Further, the GI50 in the experiment on HT29 colon is 2.43 µM and 1.62 µM; in the experiment with CAKI-1 renal, 0.331 µM and 0.625 µM; with OVCAR-8 ovarian it was 0.42 µM and 0.361 µM; with MCF7 breast, 0.887 µM and 0.399 µM. Also, the TGI in the experiment on MDA-MB-231 breast was above 65.3 µM; with IGROV1 ovarian, 10.5 µM and 8.48 µM; in the experiment with MDA-MB-435, above 100 µM; in the experiment on SNB-19 CNS, above 80.4 µM; in the experiment with SF-539 CNS it was 11.5 µM and 5.99 µM; with NCI-H23 lung it was above 55 µM. The TGI was above 100 µM in the experiment with HT29 colon; 3.03 µM and 8.82 µM with CAKI-1 renal; 43.2 µM and > 100 µM with OVCAR-8 ovarian; above 100 µM in the experiment with MCF7 breast.
